Laboratory results: ChEMBL document CHEMBL1128910, “Time-dependent inactivation of steroid C17(20) lyase by 17-cyclopropyl ether-substituted steroids” (Bioorg Med Chem Lett, 1996)

Assays:
[1] = molecular target: T1, Steroid 17-alpha-hydroxylase/17,20 lyase (Homo sapiens, UniProt P05093); experiment: Inhibition of human Cytochrome P450 steroid 17-alpha-hydroxylase/17,20 lyase at 0.8 uM pre-incubation time 30 minutes
T1 sequence (P05093 whole entry): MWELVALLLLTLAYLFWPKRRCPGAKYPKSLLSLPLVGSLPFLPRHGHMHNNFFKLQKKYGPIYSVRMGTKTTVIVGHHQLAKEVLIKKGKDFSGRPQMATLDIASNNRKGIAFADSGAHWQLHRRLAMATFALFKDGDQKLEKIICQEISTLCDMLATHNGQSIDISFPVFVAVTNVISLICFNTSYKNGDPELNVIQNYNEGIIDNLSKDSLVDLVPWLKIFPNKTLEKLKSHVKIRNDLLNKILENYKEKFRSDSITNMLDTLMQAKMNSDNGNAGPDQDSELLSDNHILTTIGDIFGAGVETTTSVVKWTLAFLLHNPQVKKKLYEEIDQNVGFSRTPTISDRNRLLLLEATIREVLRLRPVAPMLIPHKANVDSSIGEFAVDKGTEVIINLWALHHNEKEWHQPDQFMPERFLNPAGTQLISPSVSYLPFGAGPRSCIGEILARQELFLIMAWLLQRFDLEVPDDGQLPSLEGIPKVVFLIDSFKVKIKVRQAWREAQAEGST

[2] = molecular target: T1, Steroid 17-alpha-hydroxylase/17,20 lyase; experiment: Inhibition of human Cytochrome P450 steroid 17-alpha-hydroxylase/17,20 lyase at 0.8 uM
[3] = molecular target: T1, Steroid 17-alpha-hydroxylase/17,20 lyase; experiment: Inhibition of cynomolgus monkey Cytochrome P450 steroid 17-alpha-hydroxylase/17,20 lyase at 1 uM preincubation time 40 minutes
[4] = molecular target: T1, Steroid 17-alpha-hydroxylase/17,20 lyase; experiment: Inhibition of cynomolgus monkey Cytochrome P450 steroid 17-alpha-hydroxylase/17,20 lyase at 0.1 uM
[5] = molecular target: T1, Steroid 17-alpha-hydroxylase/17,20 lyase; experiment: Inhibition of cynomolgus monkey Cytochrome P450 steroid 17-alpha-hydroxylase/17,20 lyase at 1 uM
[6] = molecular target: T1, Steroid 17-alpha-hydroxylase/17,20 lyase; experiment: Inhibition of cynomolgus monkey Cytochrome P450 steroid 17-alpha-hydroxylase/17,20 lyase at 0.1 uM pre-incubation time of 40 minutes

SMILES | inhibition at 0.8 µM [1] [%] | inhibition at 0.8 µM [2] [%] | inhibition at 1 µM [3] [%] | inhibition at 0.1 µM [4] [%] | inhibition at 1 µM [5] [%] | inhibition at 0.1 µM [6] [%]
CC1(C)C2=CCC3C(CC[C@@]4(C)C3CC[C@@H]4OC3CC3)[C@@]2(C)CC[C@@H]1O (stereo partly specified) | 0 | 0 |  |  |  | 
C[C@]12CCC3C(CC=C4C[C@@H](O)[C@H]5COC[C@]43C5)C1CC[C@@H]2OC1CC1 (stereo partly specified) | 0 | 0 |  |  |  | 
C[C@]12CCC(=O)C=C1CCC1C2CC[C@@]2(C)C1CC[C@@H]2OC1CC1 (stereo partly specified) |  |  | 90 | 26 | 73 | 55
C[C@]12CCC(=O)C=C1C(=O)CC1C2CC[C@@]2(C)C1CC[C@@H]2OC1CC1 (stereo partly specified) |  |  | 79 | 17 | 52 | 51
C[C@]12CCC3C(CCC4=CC(=O)[C@H]5COC[C@]43C5)C1CC[C@@H]2OC1CC1 (stereo partly specified) | 17 | 1 |  |  |  | 
C[C@]12CC[C@H](O)CC1=CCC1C2CC[C@@]2(C)C1CC[C@@H]2OC1CC1 (stereo partly specified) | 64 | 11 |  |  |  | 
